# Source: patent US20260224548A1 (priority 2022, published 2026)
# Read-outs that look alike come from different tables or passages of the source.
# How the values were obtained:
# HsEH = biological target: T1, HsEH (Homo sapiens, UniProt P34913); assay: biochemical; assay type: biochemical
# T1 sequence (P34913 1-555): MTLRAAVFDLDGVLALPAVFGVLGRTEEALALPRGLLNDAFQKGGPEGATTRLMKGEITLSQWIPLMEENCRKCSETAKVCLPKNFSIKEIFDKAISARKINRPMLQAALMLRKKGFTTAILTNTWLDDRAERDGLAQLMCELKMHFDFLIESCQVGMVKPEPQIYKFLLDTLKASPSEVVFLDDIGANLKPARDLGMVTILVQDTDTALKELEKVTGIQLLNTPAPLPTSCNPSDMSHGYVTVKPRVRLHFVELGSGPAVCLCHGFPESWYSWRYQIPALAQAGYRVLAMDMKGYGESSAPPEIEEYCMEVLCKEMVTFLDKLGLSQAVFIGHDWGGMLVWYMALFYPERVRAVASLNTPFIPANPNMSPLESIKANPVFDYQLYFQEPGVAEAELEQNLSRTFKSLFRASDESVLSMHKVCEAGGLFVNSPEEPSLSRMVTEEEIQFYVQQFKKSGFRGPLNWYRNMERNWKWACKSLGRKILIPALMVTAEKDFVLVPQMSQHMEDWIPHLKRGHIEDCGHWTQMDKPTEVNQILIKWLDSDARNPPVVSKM
# Excerpt: (§1) Detection principle: a specific substrate, (3-phenyl-oxy)-acetic acid cyano-(6-methoxy-naphthalen-2-yl)methyl ester, namely PHOME, is non-fluorescent but can be hydrolyzed under the action of sEH enzyme to generate a product 6-methoxy-2-naphthaldehyde. The 6-methoxy-2-naphthaldehyde can emit fluorescence with a wavelength of 465 nm under 330 nm light wave excitation, and an intensity of the detected fluorescence signal is inversely proportional to an inhibitory effect on the sEH enzyme. Based on the above principle, the inhibition rates of samples with different concentrations were calculated compared with the positive control group. The IC50 value of the compound was calculated based on the inhibition rate and concentration using SPSS 20 software.
# (§2) 25 mM Tris-HCl buffer (pH=7.4, containing 0.1 mg/mL BSA): […] BAS was added to 12.5 mL of 1 M Tris-HCl buffer, followed by diluting with purified water, and a resulting mixture was adjusted to a pH value of 7.4 with hydrochloric acid, and diluted to 500 mL.
# (§3) PHOME solution: 0.79 mg PHOME was dissolved in 106 μL DMSO to obtain a 20 mM PHOME solution, which was diluted to ⅓ mM with Tris-HCl buffer before use.
# (§4) sEH solution: sEH (5 mg/mL) stock solution was stored in a refrigerator at −80° C. and diluted to 4 μg/mL with 25 mM Tris-HCl buffer before use.
# (§5) A sample powder to be tested was dissolved in DMSO to a 20 mM solution, stored in a refrigerator at −20° C. for later use, and diluted with Tris-HCl buffer to corresponding concentrations when used.
# (§6) Experimental design: solvent group, 100% activity group (A), inhibitor group (B), positive control group (C), as shown in Table 1.
# (§7) Three replicate wells were set for each sample, and the average value of the three replicate wells was the fluorescence value (F) of the compound to be tested. […] The IC50 value of the compound was calculated based on the inhibition rate and concentration using SPSS 20 software.
# MsEH = biological target: T2, MsEH (Mus musculus, UniProt P34914); assay: sEH inhibitory activity, PHOME fluorescence assay (MsEH); assay type: biochemical
# T2 sequence (P34914 1-554): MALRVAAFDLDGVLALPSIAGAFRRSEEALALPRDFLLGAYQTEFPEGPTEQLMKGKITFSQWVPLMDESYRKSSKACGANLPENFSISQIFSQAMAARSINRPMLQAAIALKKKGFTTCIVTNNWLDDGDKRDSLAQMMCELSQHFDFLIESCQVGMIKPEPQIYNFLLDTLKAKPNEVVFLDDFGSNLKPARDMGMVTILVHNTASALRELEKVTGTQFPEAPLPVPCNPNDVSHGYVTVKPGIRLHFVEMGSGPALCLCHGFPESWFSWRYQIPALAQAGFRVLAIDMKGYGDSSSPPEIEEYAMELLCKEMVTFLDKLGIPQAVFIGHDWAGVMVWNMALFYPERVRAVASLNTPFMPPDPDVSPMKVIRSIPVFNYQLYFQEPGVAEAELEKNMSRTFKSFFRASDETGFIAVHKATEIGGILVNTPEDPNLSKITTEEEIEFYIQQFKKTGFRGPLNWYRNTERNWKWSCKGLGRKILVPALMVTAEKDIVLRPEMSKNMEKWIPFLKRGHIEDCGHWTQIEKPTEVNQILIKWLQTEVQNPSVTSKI
# Excerpt: as §1, §2, §3, §4, §5, §6, §7
# [1] = PHOME substrate 50 μM, sEH 400 ng/ml, 37° C., 10 min, fluorescence 330/465 nm, read-out: HsEH IC50 (nM) Inhibitory activity against HsEH
# [2] = PHOME substrate 50 μM, sEH 400 ng/ml, 37° C., 10 min, fluorescence 330/465 nm, read-out: MsEH IC50 (nM) Inhibitory activity against MsEH
Structure (SMILES),IC50 (HsEH; [1]),IC50 (MsEH),IC50 (MsEH; [2]),IC50 (HsEH)
"CC12CC3CC(C)(C1)CC(NC(=O)Nc1ccc(CN4CCC[C@H](C(=O)N(CCO)CCO)C4)cc1F)(C3)C2 [CL-107, (S)-1-(4-(3-((1r,3R,5S,7S)-3,5-dimethyladamantan-1-yl)ureido)-3-fluorobenzyl)-N,N-bis(2-hydroxyethyl) piperidine-3-carboxamide]",0.28 nM,0.29 nM,,
"C[C@]12C[C@@H]3C[C@](C)(C1)C[C@@](NC(=O)Nc1ccc(CN4CCC[C@H](C(=O)O)C4)cc1F)(C3)C2 [CL-5, (S)-1-(4-(3-((1r,3R,5S,7S)-3,5-dimethyladamantan-1-yl)ureido)-3-fluorobenzyl) piperidine-3-carboxylic acid]",2.3 nM,,0.61 nM,
"CC12CC3CC(C)(C1)CC(NC(=O)Nc1ccc(C(=O)N4CCC(C(=O)NC(CO)CO)CC4)cc1F)(C3)C2 [CC-116, N-(1,3-dihydroxypropan-2-yl)-1-(4-(3-((1r,3R,5S, 7r)-3,5-dimethyladamantan-1-yl)ureido)-3-fluorobenzoyl) piperidine-4-carboxamide]",7.1 nM,,0.55 nM,
"CC12CC3CC(C)(C1)CC(NC(=O)Nc1ccc(CN4CCCN(C(=O)CC5CCN(CC(O)CO)CC5)CC4)cc1F)(C3)C2 [GL-22, 1-(4-((4-(2-(1-(2,3-dihydroxypropyl)piperidin-4-yl)acetyl)-1,4-diaza-1-yl)methyl)-2-fluorophenyl)-3-((1r,3R,5S,7r)-3,5-dimethyladamantan-1-yl) urea]",58.1 nM,1.25 nM,,
"CC12CC3CC(C)(C1)CC(NC(=O)Nc1ccc(C(=O)N[C@H]4CC[C@H](C(=O)N(CCO)CCO)CC4)cc1F)(C3)C2 [ZT-112, N-((1r,4R)-4-(bis(2-hydroxyethyl)carbamoyl)cyclohexyl)-4-(3-((1r,3R,5S,7r)-3,5-dimethyladamantan-1-yl)ureido)-3-fluorobenzamide]",2.94 nM,0.23 nM,,
C[C@]12CC3CC(NC(=O)Nc4ccc(C(=O)NC5CCC(C(=O)N6CCN(CCO)CC6)CC5)cc4F)(C1)C[C@@](C)(C3)C2 (some centres unmarked) [ZT-117],16 nM,,0.53 nM,
"CCC(=O)N1CCC(CC(=O)N2CCCN(C(=O)c3ccc(NC(=O)NC45CC6CC(C)(CC(C)(C6)C4)C5)c(F)c3)CC2)CC1 [CC-105, 1-((1r,3R,5S, 7r)-3,5-dimethyladamantan-1-yl)-3-(2-fluoro-4-(4-(2-(1-propionylpiperidin-4-yl)acetyl)-1,4-diaza-1-carbonyl)phenyl) urea]",,0.39 nM,,0.9 nM
"CC12CC3CC(C)(C1)CC(NC(=O)Nc1ccc(C(=O)N[C@H]4CC[C@H](C(=O)NCCO)CC4)cc1F)(C3)C2 [ZT-110, 4-(3-((1r,3R,5S,7r)-3,5-dimethyladamantan-1-yl)ureido)-3-fluoro-N-((1r,4R)-4-((2-hydroxyethyl)carbamoyl)cyclohexyl)benzamide]",,0.18 nM,,0.8 nM
"CC12CC3CC(C)(C1)CC(NC(=O)Nc1ccc(CN4CCC[C@H](C(=O)NC(CO)CO)C4)cc1F)(C3)C2 [CL-112, (S)—N-(1,3-dihydroxypropan-2-yl)-1-(4-(3-((1r,3R,5S,7S)-3,5-dimethyladamantan-1-yl)ureido)-3-fluorobenzyl) piperidine-3-carboxamide]",0.28 nM,0.35 nM,,
"CC(O)CNC(=O)[C@H]1CC[C@H](NC(=O)c2ccc(NC(=O)NC34CC5CC(C)(CC(C)(C5)C3)C4)c(F)c2)CC1 (stereo partly drawn) [ZT-111, 4-(3-((1r,3R,5S,7r)-3,5-dimethyladamantan-1-yl)ureido)-3-fluoro-N-((1r,4R)-4-((2-hydroxypropyl)carbamoyl)cyclohexyl)benzamide]",1.54 nM,0.44 nM,,
"C[C@]12CC3CC(NC(=O)Nc4ccc(C(=O)NC5CCC(C(=O)NC(CO)CO)CC5)cc4F)(C1)C[C@@](C)(C3)C2 (stereo partly drawn) [ZT-114, N-((1r,4R)-4-((1,3-dihydroxypropan-2-yl)carbamoyl)cyclohexyl)-4-(3-((1r,3R,5S,7r)-3,5-dimethyladamantan-1-yl)ureido)-3-fluorobenzamide]",0.91 nM,,0.55 nM,
"CC(=O)N1CCCN(C(=O)[C@H]2CCCN(C(=O)c3ccc(NC(=O)NC45CC6CC(C)(CC(C)(C6)C4)C5)c(F)c3)C2)CC1 [GL-101, 1-(4-((S)-3-(4-acetyl-1,4-diaza-1-carbonyl)piperidine-1-carbonyl)-2-fluorophenyl)-3-((1r,3R,5S,7S)-3,5-dimethyladamantan-1-yl) urea]",,0.26 nM,,0.6 nM
"CCC(=O)N1CCCN(C(=O)[C@H]2CCCN(C(=O)c3ccc(NC(=O)NC45CC6CC(C)(CC(C)(C6)C4)C5)c(F)c3)C2)CC1 [GL-102, 1-((1r,3R,5S,7S)-3,5-dimethyladamantan-1-yl)-3-(2-fluoro-4-((S)-3-(4-propionyl-1,4-diaza-1-carbonyl)piperidine-1-carbonyl)phenyl) urea]",0.56 nM,0.58 nM,,
"CCC(C)C(=O)N1CCCN(C(=O)[C@H]2CCCN(C(=O)c3ccc(NC(=O)NC45CC6CC(C)(CC(C)(C6)C4)C5)c(F)c3)C2)CC1 (stereo partly drawn) [GL-104, 1-((1r,3R,5S,7S)-3,5-dimethyladamantan-1-yl)-3-(2-fluoro-4-((3S)-3-(4-(2-methylbutanoyl)-1,4-diaza-1-carbonyl)piperidine-1-carbonyl)phenyl) urea]",1.4 nM,0.9 nM,,
"CC12CC3CC(C)(C1)CC(NC(=O)Nc1ccc(C(=O)N4CCC[C@H](C(=O)N5CCN(CCO)CC5)C4)cc1F)(C3)C2 [CC-121, 1-((1r,3R,5S,7S)-3,5-dimethyladamantan-1-yl)-3-(2-fluoro-4-((S)-3-(4-(2-hydroxyethyl)piperazine-1-carbonyl)piperidine-1-carbonyl)phenyl) urea]",0.84 nM,0.15 nM,,
"CN(C)C(=O)[C@H]1CCCN(Cc2ccc(NC(=O)NC34CC5CC(C)(CC(C)(C5)C3)C4)c(F)c2)C1 [CL-105, (S)-1-(4-(3-((1r,3R,5S,7S)-3,5-dimethyladamantan-1-yl)ureido)-3-fluorobenzyl)-N,N-dimethylpiperidine-3-carboxamide]",,0.12 nM,,0.7 nM
"CC12CC3CC(C)(C1)CC(NC(=O)Nc1ccc(CN4CCC[C@H](C(N)=O)C4)cc1F)(C3)C2 [CL-101, (S)-1-(4-(3-((1r,3R,5S,7S)-3,5-dimethyladamantan-1-yl)ureido)-3-fluorobenzyl) piperidine-3-carboxamide]",0.14 nM,,,
"CCC(C)C(=O)N1CCC(CC(=O)N2CCCN(C(=O)c3ccc(NC(=O)NC45CC6CC(C)(CC(C)(C6)C4)C5)c(F)c3)CC2)CC1 [CC-103, 1-((1r,3R,5S,7r)-3,5-dimethyladamantan-1-yl)-3-(2-fluoro-4-(4-(2-(1-(2-methylbutyryl)piperidin-4-yl)acetyl)-1,4-diaza-1-carbonyl)phenyl) urea]",,,0.35 nM,
"CC12CC3CC(C)(C1)CC(NC(=O)Nc1ccc(CN4CCC(C(N)=O)CC4)cc1F)(C3)C2 [CL-118, 1-(4-(3-((1r,7r)-3,5-dimethyladamantan-1-yl)ureido)-3-fluorobenzyl) piperidine-4-carboxamide]",1.54 nM,,,
